Results as given in patent US20230114728A1 (Venatorx Pharmaceuticals, Inc., priority 2019, published 2023).
In brackets after ≈: the same amount, converted by molar mass.

What was measured:
Experiment in all cases: Broth microdilution MIC in CAMHB
Type in all cases: cell-based
P. aeruginosa ATCC 27853 = settings: Pseudomonas aeruginosa, ATCC27853; MHB; read-out: Minimum Inhibitory Concentration, P. aeruginosa ATCC 27853
In short: (§1)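 CLSI microdilution; CAMHB; inoculum 2-8×10^5 CFU/mL from 3-5 h 37° C culture; 2-fold compound series; 16-20 h, 37° C; MIC = lowest well without visible growth.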

A. baumannii ATCC 19606 = settings: Acinetobacter baumannii, ATCC19606; MHB; read-out: Minimum Inhibitory Concentration, A. baumannii ATCC 19606
In short: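 CLSI broth microdilution in CAMHB: 2-fold compound dilutions inoculated at 2-8×10^5 CFU/mL from 3-5 h log-phase cultures. Incubated at 37 °C for 16-20 h (Enterobacteriaceae, Pseudomonas); MIC read visually as lowest concentration without growth. Strains include hyper-permeable and efflux-deficient mutants.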

[1] = test system: K. pneumoniae UMM producing SHV-5 and KPC-2; settings: Klebsiella pneumoniae, read-out: Minimum Inhibitory Concentration, K. pneumoniae UMM
In short: as §1

E. coli AG100 = settings: Escherichia coli; E. coli AG100 (wild-type parent); MHB; read-out: Minimum Inhibitory Concentration, E. coli AG100
In short: as §1

E. coli AG100A = settings: Escherichia coli, read-out: Minimum Inhibitory Concentration, E. coli AG100A
In short: as §1

[2] = test system: K. pneumoniae 848844 producing SHV-11 and KPC-2; settings: Klebsiella pneumoniae, read-out: Minimum Inhibitory Concentration, K. pneumoniae 848844
In short: as §1

[3] = test system: P. aeruginosa (ΔmexAB-oprM); settings: Pseudomonas aeruginosa, read-out: Minimum Inhibitory Concentration, P. aeruginosa ΔmexAB-OprM
In short: as §1

E. coli ATCC 25922 = settings: Escherichia coli, ATCC25922; E. coli ATCC 25922; MHB; read-out: Minimum Inhibitory Concentration, E. coli 25922
In short: as §1

E. coli D22 = settings: Escherichia coli; E. coli D22 (hyper-permeable); MHB; read-out: Minimum Inhibitory Concentration, E. coli D22
In short: as §1

E. coli 901C = settings: Escherichia coli; E. coli 901C (hyper-permeable); MHB; read-out: Minimum Inhibitory Concentration, E. coli 901C
In short: as §1

P. aeruginosa ATCC 35151 = settings: Pseudomonas aeruginosa, ATCC35151; MHB; hyper-permeable strain; read-out: Minimum Inhibitory Concentration, P. aeruginosa ATCC 35151
In short: as §1

[4] = test system: K. pneumoniae SI-117 producing VIM-1; settings: Klebsiella pneumoniae, read-out: Minimum Inhibitory Concentration, K. pneumoniae SI-117
In short: as §1

Compound | MIC (P. aeruginosa ATCC 27853) | MIC (A. baumannii ATCC 19606) | MIC [1] | MIC (E. coli AG100) | MIC (E. coli AG100A) | MIC [2] | MIC [3] | MIC (E. coli ATCC 25922) | MIC (E. coli D22) | MIC (E. coli 901C) | MIC (P. aeruginosa ATCC 35151) | MIC [4]
NCCN1CCN(C(=O)NC(C(=O)N[C@H]2Cc3cccc(C(=O)O)c3OB2O)c2cc(F)c(O)cc2F)C(=O)C1=O (stereo partly drawn) [Example 93, (3R)-3-(2-(4-(2-aminoethyl)-2,3-dioxopiperazine-1-carboxamido)-2-(2,5-difluoro-4-hydroxyphenyl)acetamido)-2-hydroxy-3,4-dihydro-2H-benzo[e][1,2]oxaborinine-8-carboxylic acid] | > 128 µg/mL | > 128 µg/mL | 8 to 16 µg/mL (≈ 13.9 to 27.8 µM) | 8 to 16 µg/mL (≈ 13.9 to 27.8 µM) | 2 to 4 µg/mL (≈ 3.48 to 6.95 µM) | 32 to 64 µg/mL (≈ 55.6 to 111 µM) | 32 to 64 µg/mL (≈ 55.6 to 111 µM) | 8 to 16 µg/mL (≈ 13.9 to 27.8 µM) | 2 to 4 µg/mL (≈ 3.48 to 6.95 µM) | 0.5 to 1 µg/mL (≈ 0.869 to 1.74 µM) | 0.5 to 1 µg/mL (≈ 0.869 to 1.74 µM) | 32 to 64 µg/mL (≈ 55.6 to 111 µM)
NCCN1CCN(C(=O)NC(C(=O)N[C@H]2Cc3cccc(C(=O)O)c3OB2O)c2c(F)cc(O)cc2Cl)C(=O)C1=O (stereo partly drawn) [Example 94, (3R)-3-(2-(4-(2-aminoethyl)-2,3-dioxopiperazine-1-carboxamido)-2-(2-chloro-6-fluoro-4-hydroxyphenyl)acetamido)-2-hydroxy-3,4-dihydro-2H-benzo[e][1,2]oxaborinine-8-carboxylic acid] | > 128 µg/mL | > 128 µg/mL | 32 to 64 µg/mL (≈ 54.1 to 108 µM) | 32 to 64 µg/mL (≈ 54.1 to 108 µM) | 2 to 4 µg/mL (≈ 3.38 to 6.76 µM) | 32 to 64 µg/mL (≈ 54.1 to 108 µM) | 32 to 64 µg/mL (≈ 54.1 to 108 µM) | 32 to 64 µg/mL (≈ 54.1 to 108 µM) | 8 to 16 µg/mL (≈ 13.5 to 27 µM) | 0.5 to 1 µg/mL (≈ 0.845 to 1.69 µM) | 2 to 4 µg/mL (≈ 3.38 to 6.76 µM) | 32 to 64 µg/mL (≈ 54.1 to 108 µM)
CCN1CCN(C(=O)NC(C(=O)N[C@H]2Cc3cccc(C(=O)O)c3OB2O)c2c(F)cc(O)cc2Cl)C(=O)C1=O (stereo partly drawn) [Example 95, (3R)-3-(2-(2-chloro-6-fluoro-4-hydroxyphenyl)-2-(4-ethyl-2,3-dioxopiperazine-1-carboxamido)acetamido)-2-hydroxy-3,4-dihydro-2H-benzo[e][1,2]oxaborinine-8-carboxylic acid] | > 128 µg/mL | > 128 µg/mL | 8 to 16 µg/mL (≈ 13.9 to 27.7 µM) | 8 to 16 µg/mL (≈ 13.9 to 27.7 µM) | 0.5 to 1 µg/mL (≈ 0.867 to 1.73 µM) | 32 to 64 µg/mL (≈ 55.5 to 111 µM) | 32 to 64 µg/mL (≈ 55.5 to 111 µM) | 8 to 16 µg/mL (≈ 13.9 to 27.7 µM) | 0.5 to 1 µg/mL (≈ 0.867 to 1.73 µM) | < 0.25 µg/mL | 2 to 4 µg/mL (≈ 3.47 to 6.94 µM) | 32 to 64 µg/mL (≈ 55.5 to 111 µM)
CCN1CCN(C(=O)NC(C(=O)N[C@H]2Cc3cccc(C(=O)O)c3OB2O)c2cccc(NC(=O)c3cncnc3)c2)C(=O)C1=O (stereo partly drawn) [Example 96, (3R)-3-(2-(4-ethyl-2,3-dioxopiperazine-1-carboxamido)-2-(3-(pyrimidine-5-carboxamido)phenyl)acetamido)-2-hydroxy-3,4-dihydro-2H-benzo[e][1,2]oxaborinine-8-carboxylic acid] | > 128 µg/mL | > 128 µg/mL | > 128 µg/mL | > 128 µg/mL | 8 to 16 µg/mL (≈ 12.7 to 25.4 µM) | > 128 µg/mL | 32 to 64 µg/mL (≈ 50.8 to 102 µM) | > 128 µg/mL | 8 to 16 µg/mL (≈ 12.7 to 25.4 µM) | 0.5 to 1 µg/mL (≈ 0.794 to 1.59 µM) | 2 to 4 µg/mL (≈ 3.18 to 6.36 µM) | > 128 µg/mL
CCN1CCN(C(=O)NC(C(=O)N[C@H]2Cc3cccc(C(=O)O)c3OB2O)c2cccc(NC(=O)c3cccnc3)c2)C(=O)C1=O (stereo partly drawn) [Example 97, (3R)-3-(2-(4-ethyl-2,3-dioxopiperazine-1-carboxamido)-2-(3-(nicotinamido)phenyl)acetamido)-2-hydroxy-3,4-dihydro-2H-benzo[e][1,2]oxaborinine-8-carboxylic acid] | > 128 µg/mL | > 128 µg/mL | > 128 µg/mL | > 128 µg/mL | 8 to 16 µg/mL (≈ 12.7 to 25.5 µM) | > 128 µg/mL | 32 to 64 µg/mL (≈ 50.9 to 102 µM) | > 128 µg/mL | 8 to 16 µg/mL (≈ 12.7 to 25.5 µM) | 0.5 to 1 µg/mL (≈ 0.796 to 1.59 µM) | 8 to 16 µg/mL (≈ 12.7 to 25.5 µM) | > 128 µg/mL
CCN1CCN(C(=O)NC(C(=O)N[C@H]2Cc3cccc(C(=O)O)c3OB2O)c2cccc(NS(N)(=O)=O)c2)C(=O)C1=O (stereo partly drawn) [Example 98, (3R)-3-(2-(4-ethyl-2,3-dioxopiperazine-1-carboxamido)-2-(3-(sulfamoylamino)phenyl)acetamido)-2-hydroxy-3,4-dihydro-2H-benzo[e][1,2]oxaborinine-8-carboxylic acid] | > 128 µg/mL | > 128 µg/mL | 32 to 64 µg/mL (≈ 53.1 to 106 µM) | 8 to 16 µg/mL (≈ 13.3 to 26.6 µM) | 0.5 to 1 µg/mL (≈ 0.83 to 1.66 µM) | > 128 µg/mL | 8 to 16 µg/mL (≈ 13.3 to 26.6 µM) | 8 to 16 µg/mL (≈ 13.3 to 26.6 µM) | 0.5 to 1 µg/mL (≈ 0.83 to 1.66 µM) | < 0.25 µg/mL | 0.5 to 1 µg/mL (≈ 0.83 to 1.66 µM) | 32 to 64 µg/mL (≈ 53.1 to 106 µM)
CCN1CCN(C(=O)NC(C(=O)N[C@H]2Cc3cccc(C(=O)O)c3OB2O)c2cccc(S(N)(=O)=O)c2)C(=O)C1=O (stereo partly drawn) [Example 99, (3R)-3-(2-(4-ethyl-2,3-dioxopiperazine-1-carboxamido)-2-(3-sulfamoylphenyl)acetamido)-2-hydroxy-3,4-dihydro-2H-benzo[e][1,2]oxaborinine-8-carboxylic acid] | > 128 µg/mL | > 128 µg/mL | 32 to 64 µg/mL (≈ 54.5 to 109 µM) | 32 to 64 µg/mL (≈ 54.5 to 109 µM) | 2 to 4 µg/mL (≈ 3.4 to 6.81 µM) | 32 to 64 µg/mL (≈ 54.5 to 109 µM) | 8 to 16 µg/mL (≈ 13.6 to 27.2 µM) | 32 to 64 µg/mL (≈ 54.5 to 109 µM) | 2 to 4 µg/mL (≈ 3.4 to 6.81 µM) | < 0.25 µg/mL | 2 to 4 µg/mL (≈ 3.4 to 6.81 µM) | 32 to 64 µg/mL (≈ 54.5 to 109 µM)
